Laboratory results reported in patent US8840924B2, “Compositions and methods of making rapidly dissolving ionically masked formulations” (NEOS Therapeutics, LP, priority 2005, dated 2014).

Experiments:
[1] = Dissolution profile of chewable tablet (release of pseudoephedrine and chlorpheniramine); format: physicochemical
Description: Below is a list of actual assay results for one example of the present invention with the composition listed as formula II above.
Below is a list of assay results for one example of the present invention with the composition listed as formula II above.

[2] = Dissolution profile of capsule (release of pseudoephedrine and chlorpheniramine); format: physicochemical; details: Table 4, capsules
Description: In addition the composition may be in the form of a capsule. Below is a list of actual assay results for one example of the present invention when in the form of a capsule.

[3] = Table 1, chewable tablet, composition formula II
[4] = Table 2, after Example III, text says formula II
[5] = Table 3, composition listed as formula II

CN(C)CCC(c1ccc(Cl)cc1)c1ccccn1 (stereo not drawn) [Chlorpheniramine]
release, 30 min (%) [1, 3]: 35.1%
release, 1 Hr (%) [1, 3]: 42.7%
release, 3 Hr (%) [1, 3]: 51.6%
release, 8 Hr (%) [1, 3]: 60.8%
release, 30 min (%) [1, 4]: 36.4%
release, 1 Hr (%) [1, 4]: 42.1%
release, 3 Hr (%) [1, 4]: 51.0%
release, 8 Hr (%) [1, 4]: 60.7%
release, 30 min (%) [1, 5]: 40.1%
release, 1 Hr (%) [1, 5]: 45.1%
release, 3 Hr (%) [1, 5]: 53.3%
release, 8 Hr (%) [1, 5]: 62.1%
release, 90 min (%) [2]: 21.9%
release, 3 Hr (%) [2]: 35.4%
release, 6 Hr (%) [2]: 55.2%
release, 12 Hr (%) [2]: 78.6%

CN[C@@H](C)[C@@H](O)c1ccccc1 [Pseudoephedrine]
release, 30 min (%) [1, 3]: 27.6%
release, 30 min (%) ([1]; Table 1, chewable tablet, composition formula II, listed as pseudoephedrine): 26.7%
release, 1 Hr (%) [1, 3]: 37.8%
release, 3 Hr (%) [1, 3]: 59.4%
release, 8 Hr (%) [1, 3]: 82.0%
release, 30 min (%) [1, 4]: 27.0%
release, 1 Hr (%) [1, 4]: 36.3%
release, 3 Hr (%) [1, 4]: 53.0%
release, 8 Hr (%) [1, 4]: 78.4%
release, 30 min (%) [1, 5]: 29.2%
release, 1 Hr (%) [1, 5]: 39.7%
release, 3 Hr (%) [1, 5]: 61.2%
release, 8 Hr (%) [1, 5]: 85.2%
release, 90 min (%) [2]: 34.8%
release, 3 Hr (%) [2]: 54.1%
release, 6 Hr (%) [2]: 75.4%
release, 12 Hr (%) [2]: 91.7%
